From ChEMBL document CHEMBL1135307, “Novel diamide-based inhibitors of IMPDH” (Bioorg Med Chem Lett, 2002) come the findings set out here.

pIC50: −log10 of the molar value.

The target in this assay is Inosine-5'-monophosphate dehydrogenase 2 (Homo sapiens, UniProt P12268). Put plainly: Inhibition of human Inosine-5'-monophosphate dehydrogenase 2.
Compound `COC(=O)C(C)(C)NC(=O)C(=O)Nc1ccc(-c2cnco2)c(OC)c1` gave a pIC50 of 7.13. `COc1cc(NC(=O)C(=O)NC(C)(C)CO)ccc1-c1cnco1` gave a pIC50 of 7.72. Turning to `COc1cc(NC(=O)CC(=O)Nc2cccc(C)c2)ccc1-c1cnco1`, the pIC50 was 6.36.

`COc1cc(NC(=O)C(=O)NC(C)(C)C(=O)O)ccc1-c1cnco1` showed a pIC50 of less than 5.00. In the case of `COc1cc(NC(=O)C(=O)NCc2ccccc2)ccc1-c1cnco1` it was less than 5.00; in that of `COc1cc(NC(=O)C(=O)NNc2ccccc2)ccc1-c1cnco1`, less than 5.00.

`CCCNC(=O)C(=O)Nc1ccc(-c2cnco2)c(OC)c1` had a pIC50 of less than 5.00.

For the compound `COc1cc(NC(=O)C(=O)NC(C)(C)C)ccc1-c1cnco1`, the pIC50 was 8.00.

On to `CC(C)(C)NC(=O)C(=O)Nc1ccc(-c2cnco2)c(Cl)c1`, for which the negative logarithm of the IC50 (pIC50) is 7.26.

The compound `CC(C)(C)NC(=O)C(=O)Nc1ccc(-c2cnco2)cc1` had a pIC50 of less than 5.00. `COc1cc(NC(=O)CC(=O)Nc2ccccc2)ccc1-c1cnco1` showed a pIC50 of 6.40. `CC(C)(C)NC(=O)C(=O)Nc1ccc(-c2cnco2)c(Br)c1`: the negative logarithm of the IC50 (pIC50) is 7.30. Compound `COc1cc(NC(=O)C(=O)N(C)C(C)(C)C)ccc1-c1cnco1` gave a pIC50 of less than 5.00.

In turn, `COc1cc(NC(=O)C(=O)NC2(CO)CCCC2)ccc1-c1cnco1` had a pIC50 of 7.74. The figure for `COc1cc(NC(=O)C(=O)N(C)c2ccccc2)ccc1-c1cnco1` is less than 5.00; for `COc1cc(NC(=O)C(=O)Nc2ccccc2)ccc1-c1cnco1` it is 7.28; for `Cc1ncoc1-c1ccc(NC(=O)C(=O)NC(C)(C)C)cc1` it is less than 5.00. In the case of `COc1cc(NC(=O)C(=O)NC2CCCCC2)ccc1-c1cnco1` it was less than 5.00; in that of `COc1cc(NC(=O)C(=O)NC(C)(C)CN(C)C)ccc1-c1cnco1`, 7.33; in that of `COc1cc(NC(=O)C(=O)NC(C)C)ccc1-c1cnco1`, less than 5.00. For `COc1cc(NC(=O)C(=O)Nc2cccc(CNC(=O)O[C@@H]3CCOC3)c2)ccc1-c1cnco1`, the pIC50 was 7.52.
